These results are taken from article PMC7716890 (Clinical Pharmacokinetics, 2020).

Data set [1] can be described thus: Safety and tolerability assessment. Type of data set: in vivo, healthy male subjects. The settings on record: one subject, upon administration of probenecid 1000 mg.
Data set [2] is described as follows: Plasma concentrations of the transporter inhibitors around expected time to Cmax. Type of data set: in vivo, healthy male subjects. The settings on record: cimetidine 400 mg multiple doses; current study.
For data set [3] the following is noted: for AUC0–tz Ratio T/R / Cmax Ratio T/R: cocktail + cimetidine vs cocktail alone.
For data set [4] the following is noted: cited from earlier work.
For data set [5] the following is noted: for AUC0–tz Ratio T/R / Cmax Ratio T/R: cocktail + probenecid vs cocktail alone.
Where [6] appears, read: cocktail (metformin 10 mg) with cimetidine vs cocktail alone.
The mark [7] stands for this setting: metformin 500 mg with cimetidine vs alone.
[8] abbreviates: cocktail + rifampin vs cocktail alone.
Where [9] appears, read: cocktail + verapamil vs cocktail alone.
Setting [10] is: cocktail with single-dose rifampin vs cocktail alone.
Where [11] appears, read: cocktail with single-dose verapamil vs cocktail alone.
Setting [12] is: cocktail (furosemide 1 mg) with probenecid vs cocktail alone.

Entries after “also recorded” stand apart in the source; their conditions may differ. Read-outs that look alike come from different tables or passages of the source.

Turning to `CCCN(CCC)S(=O)(=O)c1ccc(C(=O)O)cc1` [Probenecid, probenecid], in data set [1], the “AEs leading to premature withdrawal from treatment” value was “nausea, dizziness”.

Compound `CN/C(=N/CCSCc1nc[nH]c1C)NC#N` [Cimetidine, cimetidine] returned a maximum plasma concentrations in data set [2] of 4.24 to 11.1 µM.

As for `CN(C)C(=N)N=C(N)N` [Metformin, metformin], in data set [3] (setting [6]), the “increase of AUC0–tz” value turned out to be 31% and the “increase of Cmax” value turned out to be 23%. Moreover, in data set [3] (setting [7]), the “increase of AUC0–tz” value is 51% and the “increase of Cmax” value stood at 41%. In addition, in data set [4] (metformin with cimetidine, previous findings), the “increase in systemic exposure” value is recorded as 45–70%. In addition, the increase in exposure in data set [4] (metformin with rifampin coadministration) is reported as 10%.

In the case of `C[C@H]1O[C@@H](O[C@H]2[C@@H](O)C[C@H](O[C@H]3[C@@H](O)C[C@H](O[C@H]4CC[C@@]5(C)[C@H](CC[C@@H]6[C@@H]5C[C@@H](O)[C@]5(C)[C@@H](C7=CC(=O)OC7)CC[C@]65O)C4)O[C@@H]3C)O[C@@H]2C)C[C@H](O)[C@@H]1O` [Digoxin, digoxin], the “increase of AUC0–tz” value in data set [3] (setting [6]) was determined as 26% and the “increase of AUC0–tz” value under setting [10] is 31%. Besides, the “AUC0–tz Ratio T/R” value in data set [3] was 125.61%, the “AUC0–tz Ratio T/R” value in data set [5] was found to be 106.78%, the “AUC0–tz Ratio T/R” value under setting [8] was 131.41% and the “AUC0–tz Ratio T/R” value under setting [9] is 100.70%. Further, the “Cmax Ratio T/R” value in data set [3] is reported as 122.03%, the “Cmax Ratio T/R” value in data set [5] was 87.07%, the “Cmax Ratio T/R” value under setting [8] is 218.26% and the “Cmax Ratio T/R” value under setting [9] worked out at 121.64%. In data set [5] (cocktail with probenecid vs cocktail alone), the “effect of probenecid on systemic exposure” value was “no relevant effect”. Further, in data set [4] (digoxin with verapamil administered over multiple days), the increase in exposure is on record as 44–77%. The “increase of Cmax” value is, setting by setting: under setting [10], 118%; under setting [11], 22%. The “effect on AUC0–tz” value under setting [11] is “unaltered; also recorded: unchanged”. The “effect on CLR” value under setting [11] was “unchanged”.

For the compound `NS(=O)(=O)c1cc(C(=O)O)c(NCc2ccco2)cc1Cl` [Furosemide, furosemide], the “decrease of CLR” value is listed as 74% in data set [5] (setting [12]) and 76% in data set [5] (furosemide 40 mg with probenecid vs alone).

As to `CC(C)c1nc(N(C)S(C)(=O)=O)nc(-c2ccc(F)cc2)c1/C=C/[C@@H](O)C[C@@H](O)CC(=O)O` [Rosuvastatin, rosuvastatin], the “AUC0–tz Ratio T/R” value in data set [3] was found to be 107.42%, the “AUC0–tz Ratio T/R” value in data set [5] turned out to be 223.24%, the “AUC0–tz Ratio T/R” value under setting [8] is 348.06% and the “AUC0–tz Ratio T/R” value under setting [9] was found to be 113.40%. The “Cmax Ratio T/R” value in data set [3] is 116.88%, the “Cmax Ratio T/R” value in data set [5] was 428.23%, the “Cmax Ratio T/R” value under setting [8] was determined as 1125.10% and the “Cmax Ratio T/R” value under setting [9] was found to be 115.39%. Moreover, in data set [3] (cocktail with cimetidine vs cocktail alone), the “effect of cimetidine on systemic exposure” value is recorded as “no effect”. In addition, in data set [5] (setting [12]), the “decrease of CLR” value is recorded as 78%. Besides, the “increase of AUC0–tz” value in data set [5] (setting [12]) was determined as 123% and the “increase of AUC0–tz” value under setting [10] came out at 248%. The “increase of Cmax” value in data set [5] (setting [12]) is given as 328% and the “increase of Cmax” value under setting [10] amounted to 1025%. Moreover, the “effect of verapamil on systemic exposure” value under setting [11] was “no effect”.
